Entries after “also recorded” stand apart in the source; their conditions may differ. Marks after values point to notes of the source that are not given here.
Experiments:
Type in all cases: cell-based, human
[1] = test system: YAP; assay: Expression of YAP in HTM cells after 17-allylamino-17-demethoxygelanamycin; conditions: 25 nM
[2] = test system: HSP90; assay: Amount of HSP90 in HTM cells after 17-allylamino-17-demethoxygelanamycin; conditions: 25 nM
[3] = test system: YAP; assay: YAP immunofluorescence, nuclear/cytoplasmic localization in HTM cells after Lat-B; conditions: Lat-B vs DMSO, one hour after treatment
Protocol: Fixation and Immunofluoresence. One hour after treatment with Lat-B or DMSO, the cells were rinsed twice with warm DPBS and fixed in warm DPBS with 4% paraformaldehyde (Sigma-Aldrich, St. Louis, Mo.) for 20 min. They were rinsed twice more and permeabilized in DPBS with 0.5% Triton-X100 (Sigma-Aldrich, St. Louis, Mo.). They were rinsed and stored in DPBS until staining Rabbit anti-YAP (H-125, Santa Cruz Biotechnology, Santa Cruz, Calif.) was diluted in PBS containing 0.2% A-type cold fish gelatin (Sigma-Aldrich, St. Louis, Mo.) as a blocking agent. After primary staining, cells were rinsed twice in PBS. Dylight 594-conjugated goat anti-rabbit IgG (Thermo Scientific Pierce, Rockford, Ill.) was similarly diluted. After secondary staining, the cells were again rinsed, counterstained with DAPI (Life Technologies, Carlsbad, Calif.), rinsed a final time, and stored in PBS for imaging. Cells were imaged on an Axiovert 200 M (Carl Zeiss AG, Oberkochen, Germany) inverted microscope with a 20× objective. To mitigate background signal, images were filtered with a 77.5 μm rolling ball background and local median filtering (ImageJ, NIH, Bethesda, Md.).

[4] = test system: YAP mRNA; assay: Relative quantitative PCR for YAP mRNA in primary HTM cells on hydrogels or TCP after Lat-B; conditions: for Relative quantification of YAP mRNA (mean ± SEM): 2 μM Lat-B, 1 h after treatment, TCP DMSO = 1.0; for YAP mRNA expression versus DMSO: HTM 424 donor (FIG. 8)
Protocol: (§1) Hydrogel Fabrication. Polyacrylamide hydrogels mimicking the stiffness of the normal (5 kPa) and glaucomatous (75 kPa) HTM were prepared utilizing previously described procedures (McKee et al., 2011; Wood et al., 2011b). Briefly, hydrogels were fabricated and then sterilized with ultraviolet light and rinsed every 24 hours for at least 72 hours in Dulbecco's phosphate buffered solution (DPBS, Hyclone, Logan, Utah) to fully hydrate the hydrogels and to ensure removal of monomeric acrylamide since free acrylamide has been previously shown to disrupt cytoskeletal structure (Arocena, 2006). Following hydration, the hydrogels (10 mm) were adhered to TCP, stored in HTM cell medium, DME/F-12 medium containing 2.5 mM L-glutamine supplemented with 1% penicillin-streptomycin with amphotericin b (Lonza, Walkerville, Md.) and 10% fetal bovine serum (Atlanta Biologicals, Lawrence, Ga.), for 24 hrs and coated with a proprietary fibronectin/collagen (FNC) mixture (AthenaES, Baltimore, Md.) for 20 minutes. The elastic modulus of the hydrogels used were previously validated with atomic force microscopy at 4±2 kPa and 71±5 kPa for the 5 and 75 kPa gels respectively (McKee et al., 2011; Radmacher et al., 1992).
(§2) HTM Cell Isolation and Culture. Primary HTM cells were isolated from corneoscleral rims considered unsuitable for transplant from donors with no prior history of ophthalmic disease as previously described (McKee et al., 2011; Rhee et al., 2003; Wood et al., 2011b). Isolated cells were cultured in HTM cell medium and all studies were conducted using cells prior to the eighth passage. HTM cells were plated at a density of 1.5 ×105 on FNC-coated TCP and 75 kPa hydrogels and 2.5×105 on FNC-coated 5 kPa hydrogels for 24 h prior to Lat-B treatment. The 5 kPa hydrogels were plated a higher density than the other substrates because HTM cells proliferate more slowly on the 5 kPa hydrogels (Wood et al., 2011a), and to ensure that there was enough mRNA present to perform PCR.
(§3) Latrunculin-B Treatment. Lyophilized Lat-B (Cal Biochem, La Jolla, Calif.) was re-suspended to a final concentration of 2.5 mM in dimethyl sulfoxide (DMSO) (Fisher, Pittsburgh, Pa.). Fresh solutions of 2.0 μM Lat-B were prepared in serum free DPBS for all experiments. Control samples were treated with an equivalent concentration of DMSO in serum free DPBS.
(§4) RNA Extraction and Quantitative Real-Time PCR. One hour after treatment with Lat-B or DMSO, RNA was extracted using the Qiagen RNeasy kit following the manufacturer's protocol (Qiagen, Valencia, Calif.). […] The cycle threshold (Ct) ranges were 11-22 for 18S, 23-27 for YAP, 23-34 for WWTR1, 27-32 for 14-3-3σ, 21-30 for CTGF and 17-23 for PAI-1. The 18S ribosomal RNA served as a reference. […] In order to control for slight variations in the amount of RNA loaded into the PCR reactions, the difference in cycle threshold (ΔCt) between the gene of interest (e.g. YAP) and the average cycle threshold (Ct) of the house keeping gene, 18S (ran in triplicate) were calculated. By calculating the difference in ΔCt between an experimental condition and the control condition (TCP DMSO), the experimental data was normalized to the control data. Ratios with respect to this control were calculated for all other values. The protein TAZ is encoded by the WWTR1 gene, for ease of reading, the mRNA obtained from the WWTR1 gene is designated as TAZ mRNA.

[5] = test system: 14-3-3σ mRNA; assay: Relative quantitative PCR for 14-3-3σ mRNA in primary HTM cells on hydrogels or TCP after Lat-B; conditions: for Relative quantification of 14-3-3σ mRNA (mean ± SEM): 2 μM Lat-B, 1 h after treatment, TCP DMSO = 1.0; for 14-3-3σ mRNA expression versus DMSO: HTM 424 donor (FIG. 11); for level of 14-3-3σ mRNA: Example 3 (FIG. 16)
Protocol: as §1, §2, §3, §4

[6] = test system: TAZ mRNA; assay: qPCR for TAZ (WWTR1) mRNA in primary HTM cells after Lat-B
Protocol: (§5) Hydrogel Fabrication. Polyacrylamide hydrogels mimicking the stiffness of the normal (5 kPa) and glaucomatous (75 kPa) HTM were prepared utilizing previously described procedures (McKee et al., 2011; Wood et al., 2011b). Briefly, hydrogels were fabricated and then sterilized with ultraviolet light and rinsed every 24 hours for at least 72 hours in Dulbecco's phosphate buffered solution (DPBS, Hyclone, Logan, Utah) to fully hydrate the hydrogels and to ensure removal of monomeric acrylamide since free acrylamide has been previously shown to disrupt cytoskeletal structure (Arocena, 2006). […]
(§6) RNA Extraction and Quantitative Real-Time PCR. […] In order to control for slight variations in the amount of RNA loaded into the PCR reactions, the difference in cycle threshold (ΔCt) between the gene of interest (e.g. YAP) and the average cycle threshold (Ct) of the house keeping gene, 18S (ran in triplicate) were calculated. […] Ratios with respect to this control were calculated for all other values. The protein TAZ is encoded by the WWTR1 gene, for ease of reading, the mRNA obtained from the WWTR1 gene is designated as TAZ mRNA.

[7] = test system: PAI-1 mRNA; assay: qPCR for PAI-1 mRNA in primary HTM cells after Lat-B; conditions: 75 kPa hydrogels, all 3 donors
Protocol: as §5, §6

[8] = test system: CTGF mRNA; assay: qPCR for CTGF mRNA in primary HTM cells after Lat-B; conditions: stiff (75 kPa) hydrogels, 3 donors, p=0.02
Protocol: as §5, §6

[9] = test system: myocilin (MYOC) mRNA; assay: Myocilin mRNA in HTM cells on hydrogels or TCP after Lat B
Protocol: (§7) Materials and methods similar to those in Examples 1 and 2 were used. Alternatively or additionally, at least some of the following methods were or can be used for the experiments described hereafter.
(§8) Cell Culture. Primary HTM cells is obtained from normal human donor corneoscleral rims deemed not suitable for transplant (50). HTM cells are cultured in DMEM/F12 medium with 10% fetal bovine serum. Only cells before the 7th passage are used to conduct these studies. Only normal HTM cells are used because growth of cells from glaucomatous HTM is generally not robust enough to guarantee a successful completion of the experiment (51-54). Cells are plated onto hydrogels with Young's moduli of 5 kPa (homeomimetic) or 75 kPa (pathomimetic) that are fabricated to fit in a single well of a standard 6 well culture plate with 300,000 cells per surface. The cells are allowed to attach to the surfaces for 24 hours prior to subsequent experimentation.
(§9) Fabrication of Hydrogel Substrates. Hydrogels are composed of 5.8% acrylamide/0.2% bisacrylamide (5 kPa) or 17.4% acrylamide/0.6% bisacrylamide (75 kPa). Each of the gels contains 4% (v/v) acrylamidoisopropyl trimethyl ammonium chloride. After polymerization, the gels are stored in phosphate buffered saline for two days to allow maximal swelling. One day prior to seeding of the cells on the hydrogels, culture medium with 10% fetal bovine serum is added to the gel to allow the hydrogel to be coated with the various proteins and components present in the serum. The Young's moduli of the hydrogels have been validated by atomic force microscopy (14, 55).
(§10) Real-Time PCR. Real-time PCR is conducted with 70 ng of mRNA using a StepOne PCR machine. Reverse transcription is done for 30 minutes at 50° C. and subsequent PCR is done for 40 cycles of 15 seconds at 95° C. and 1 minute at 60° C.

[10] = test system: SPARC mRNA; assay: SPARC mRNA in HTM cells on hydrogels or TCP after Lat B
Protocol: as §7, §8, §9, §10

[11] = HTM cells after Lat B treatment (Example 3)
[12] = homeo- and pathomimetic hydrogels, Lat B 30 minutes, seven hours recovery, listed as Lat B
[13] = homeo- and pathomimetic hydrogels, Lat B 30 minutes, seven hours recovery, listed as Latrunculin B
[14] = tissue culture plastic (GPa), after Lat B treatment

C=CCNC1=C2C[C@@H](C)C[C@H](OC)[C@H](O)[C@@H](C)/C=C(\C)[C@H](OC(N)=O)[C@@H](OC)/C=C\C=C(/C)C(=O)NC(=CC1=O)C2=O [17-allylamino-17-demethoxygelanamycin]
expression of YAP [1]: increased expression | reduction of the amount of HSP90 [2]: 50%

C/C1=C/C(=O)O[C@@H]2C[C@@H](CC[C@H](C)/C=C\CC1)O[C@@](O)([C@@H]1CSC(=O)N1)C2 [Lat-B, Latrunculin-B]
YAP in the nucleus (nuclear localization) ([3]; 5 kPa hydrogel): dramatic reduction | YAP nuclear localization ([3]; TCP): some nuclear localization remained | YAP mRNA versus DMSO ([4]; 75 kPa hydrogels, one hour after treatment, all three donors, p<0.05): significantly less | Relative quantification of YAP mRNA (mean ± SEM) ([4]; HTM 211 cells, 5 kPa hydrogel): 0.33 ± 0.01^a ^ | Relative quantification of YAP mRNA (mean ± SEM) ([4]; HTM 211 cells, 75 kPa hydrogel): 0.06 ± 0.01^b, † | Relative quantification of YAP mRNA (mean ± SEM) ([4]; HTM 211 cells, TCP (>1 GPa)): 0.48 ± 0.0^c, † | Relative quantification of YAP mRNA (mean ± SEM) ([4]; HTM 424 cells, 5 kPa hydrogel): 0.79 ± 0.06^a, † | Relative quantification of YAP mRNA (mean ± SEM) ([4]; HTM 424 cells, 75 kPa hydrogel): 0.59 ± 0.05^a, † | Relative quantification of YAP mRNA (mean ± SEM) ([4]; HTM 424 cells, TCP (>1 GPa)): 1.3 ± 0.39^a | Relative quantification of YAP mRNA (mean ± SEM) ([4]; HTM 431 cells, 5 kPa hydrogel): 1.6 ± 0.01^a, † | Relative quantification of YAP mRNA (mean ± SEM) ([4]; HTM 431 cells, 75 kPa hydrogel): 0.83 ± 0.05^b, † | Relative quantification of YAP mRNA (mean ± SEM) ([4]; HTM 431 cells, TCP (>1 GPa)): 0.55 ± 0.02^c, † | decrease of YAP mRNA levels [4, 11]: 1.8 fold | YAP mRNA expression versus DMSO ([4]; cells grown on TCP): did not have significantly different | YAP mRNA expression versus DMSO ([4]; cells grown on hydrogels): significantly less | Relative quantification of 14-3-3σ mRNA (mean ± SEM) ([5]; HTM 211 cells, 5 kPa hydrogel): 15 ± 0.82^a | Relative quantification of 14-3-3σ mRNA (mean ± SEM) ([5]; HTM 211 cells, 75 kPa hydrogel): 29 ± 1.8^b, † | Relative quantification of 14-3-3σ mRNA (mean ± SEM) ([5]; HTM 211 cells, TCP (>1 GPa)): 1.2 ± 0.25^c | Relative quantification of 14-3-3σ mRNA (mean ± SEM) ([5]; HTM 424 cells, 5 kPa hydrogel): 4.8 ± 0.12^a, † | Relative quantification of 14-3-3σ mRNA (mean ± SEM) ([5]; HTM 424 cells, 75 kPa hydrogel): 5.6 ± 0.51^a, † | Relative quantification of 14-3-3σ mRNA (mean ± SEM) ([5]; HTM 424 cells, TCP (>1 GPa)): 0.73 ± 0.20^b ^ | Relative quantification of 14-3-3σ mRNA (mean ± SEM) ([5]; HTM 431 cells, 5 kPa hydrogel): 1.09 ± 0.02^a ^ | Relative quantification of 14-3-3σ mRNA (mean ± SEM) ([5]; HTM 431 cells, 75 kPa hydrogel): 1.57 ± 0.11^b, † | Relative quantification of 14-3-3σ mRNA (mean ± SEM) ([5]; HTM 431 cells, TCP (>1 GPa)): 0.53 ± 0.02^c, † | 14-3-3σ mRNA expression versus DMSO ([5]; cells grown on TCP): did not have significantly different | 14-3-3σ mRNA expression versus DMSO ([5]; cells grown on hydrogels): significantly more | level of 14-3-3σ mRNA ([5]; softer (homeomimetic) hydrogels): no effect | level of 14-3-3σ mRNA ([5]; stiffer (pathomimetic) hydrogels, listed as Lat B): increased | level of 14-3-3σ mRNA ([5]; stiffer (pathomimetic) hydrogels, listed as Latrunculin B): doubled | 14-3-3σ expression versus DMSO ([5]; stiffer hydrogels, all three donors (HTM 211, 424, 431)): markedly increased | decrease of TAZ mRNA levels [6, 11]: 1.9 fold | TAZ mRNA versus DMSO ([6]; stiff (75 kPa) hydrogels, 3 donors, P=0.11): trend towards less; also recorded: markedly less | PAI-1 mRNA expression versus DMSO [7]: less and decreased | CTGF mRNA expression versus DMSO [8]: significantly decreased; also recorded: significantly less | MYOC mRNA levels [9, 12]: significantly reduced | MYOC mRNA levels [9, 13]: significantly decreased | MYOC mRNA levels [9, 14]: no change | SPARC mRNA levels [10, 12]: significantly reduced | SPARC mRNA levels [10, 13]: significantly decreased | SPARC mRNA levels [10, 14]: no change
